Experiments:
Type in all cases: cell-based, human
HTM cells [1] = test: Confocal/fluorescence imaging of HTM cell morphology on latrunculin exposure and recovery; details: for cell morphology: 0.2 μM latrunculin
Experimental: (§1) Primary HTM cells were obtained from corneal buttons from donors with no ocular diseases and that were not suitable for transplant. […] Cells were plated onto glass surfaces at 100,000 cells per surface. A similar number of cells were plated onto the biomimetic PA hydrogels. The cells were allowed to attach to the surfaces for 12 hours prior to the start of the experiment. Fluorescent images of the actin cytoskeleton were obtained from fixed cells stained with phalloidin-AlexaFluor 568 (Invitrogen, Carlsbad, Calif.). Fluorescent images of the cell membrane were obtained from live cells stained with wheat germ agglutinin-AlexaFluor 488 (Invitrogen).
Latrunculin B influences cytoskeleton of cells by associating with actin. […] The micrographs were taken with a confocal AFM. The live HTM cells were labeled with fluorescent wheat germ agglutinin and the latrunculin was added. […] Measurements of compliance were taken prior to the introduction of drug, and at the 30 minute time point. The cells had moduli of 2.0 kPa prior to addition of latrunculin, and 0.07 kPa at 30 minutes. The concentration of drug used was not in the range of 1-100 μM used in other published studies. It should be noted, however, that the higher ranges (100 μM) were topically applied to primate eyes (20 μl) in one bolus while our studies had the drug present during the entire one hour time period. The effects of the latrunculin were profound.
The morphology of HTM cells adhered to glass and the glaucomatous (pathomimetic)polyacrylamide gel (PPA, 92.2±10.4 kPa) substrates were predominantly elongated with pronounced asymmetry. On the homeomimetic polyacrylamide gel (HPA, 4.0±1.5 kPa), the cells were predominantly adhered in a radially symmetric fashion and were considerably rounder in appearance (See, FIGS. 6 and 10). When exposed to Lat-B, HTM cells on glass and PPA substrates responded in a similar fashion to other cell types previously studied (Spector, et al., (1983) Science 219:493-495, Wakatsuki, et al., (2001) Journal of Cell Science 114:1025-1036, Coue, et al., (1987) Febs Letters 213:316-318; Cha, et al., (2004) J Cell Sci 117:3353-3365). Lat-B disrupted the dynamic process of actin filament maintenance and the actin polymerization process rapidly shifted towards net depolymerization. […] These strands resembled retraction fibers observed during mitosis (Sanger, et al., (1984) Cell Tissue Res 237:409-417). Similar cable-like filaments have also been reported by Evanko, et. al., (J Histochem Cytochem (2009) 57:1041-1060).

HTM cells [2] = test: AFM measurement of Young's modulus (compliance) of HTM cells before and after Lat-B exposure; details: for HTM Cell Modulus on Substrates, Glass: glass (GPa range), pre-dose 2.7 ± 0.7; for HTM Cell Modulus on Substrates, Homeomimetic: homeomimetic gel E = 4.0 ± 1.5 kPa, pre-dose 1.6 ± 0.2; for HTM Cell Modulus on Substrates, Pathomimetic: pathomimetic gel E = 92 ± 10 kPa, pre-dose 1.8 ± 0.5
Experimental: as §1
The PA gels were then adhered to UV-cleaned, glass-bottom petri dishes (World Precision Instruments, Sarasota, Fla.), incubated in HTM medium for 12 hours, and then coated with a mixture of fibronectin and collagen (FNC coating mix, Athena Environmental Sciences, Baltimore, Md.) for 10 minutes prior to cell seeding. HTM cells were added to these dishes in media and were allowed to incubate overnight to ensure proper cell adhesion to the FNC-coated PA gels. Immediately prior to AFM measurements, the HTM media was rinsed away with PBS. This was done because fetal bovine serum is known to inactivate Lat-B (Spector, et al., (1989) Cell Motil Cytoskeleton 13:127-144).
The contact mechanics of the PA substrates and the HTM cells were studied with two MFP-3D atomic force microscopes (Asylum Research, Santa Barbara, Calif.) interfaced with either an Olympus (FluoView 1000 laser scanning confocal microscope, Olympus America, Center Valley, Pa.) or Zeiss (Axio Observer A1, Carl Zeiss, Thornwood, N.Y.) inverted microscope. No differences in contact mechanics of the samples were observed between the two instruments. The AFM probes in the substrate studies were silicon nitride cantilevers (PNP-TR-50, k=60 pN/nm, NanoAndMore, Lady's Island, S.C.) with a square pyramid tip incorporated at the free end. For each experiment, the actual spring constant of the cantilever was determined by monitoring the amplitude of the lever's thermal vibration at resonance and applying the equipartition theorem (Hutter, et al., (1993) Review of Scientific Instruments 64:3342-3342). Probe indentation measurements were obtained over the central region of the cell where the nucleus was present.
Compliance of the HTM cells and PA gels was quantified by fitting the force, generated by the indenting probe, vs. the depth of indentation with equation 1 (Hertz, H. (1882) J. Reine Angew. Mathematik 92:156-171; Love, A. E. H. (1939) Quarterly Journal of Mathematics 10:161-175; Harding, et al., (1945) Proceedings of the cambridge philosophical society 41:16-26).
Where α is the half-angle opening of the square pyramid tip (35°), ν is Poisson's ratio, E is Young's modulus and δ is the penetration depth. By using Eq. 1, we have assumed that the HTM cells and PA gels were perfectly elastic, isotropic, and infinitely thick and that the square pyramid indenter was a rigid cone. A Poisson ratio of 0.5 (incompressible) for both the cell and polyacrylamide gels was assigned, since both samples were well hydrated. This allows a solution for Young's modulus of the sample.
Application of Eq. 1 is not straightforward, as both the cells and gels were not perfectly elastic or isotropic, they were viscoelastic and anisotropic, and they were also not infinitely thick. However, in the limit of small indentations both the cells and gels were well described by Eq. 1. The method proposed by Mahaffey et al., (Phys Rev Lett (2000) 85:880-883) was applied to quantitatively define the indentation depth over which these viscoelastic materials behave as elastic bodies. This is accomplished by plotting experimental values of E vs. δ during tip indentation and noting the penetration depth over which E remains constant. […]

myocilin = test: Western blot of myocilin protein in HTM 631 cells; details: HTM 631 cells on 400 nm pitch surfaces with dexamethasone
Experimental: Protein concentration is assessed using the Bradford protein assay. Samples of 10 μg are electrophoresed on a 10% polyacrylamide gel and the protein transferred to nitrocellulose membranes as previously described^141. Antibodies for the proteins being detected are commercially available or publicly described. A chemiluminescent detection method is used with peroxidase linked antibodies to mouse, chick or rabbit in conjunction with the LumiGLO chemiluminesent kit. The banding pattern obtained on the x-ray film is quantified using ImageQuant software with the actin band serving as a normalized reference for protein loading. Imaging can also be done using a CCD camera without the use of x-ray film.

| SMILES | cell morphology (HTM cells [1]; 30 minutes, listed as Latrunculin) | cell morphology (HTM cells [1]; 30 minutes, listed as latrunculin) | cell morphology (HTM cells [1]; one hour) | time to return to pre-exposure morphology after rinsing Lat-B (HTM cells [1]; glass and PPA substrates) | modulus of the cells (HTM cells [2]; 0.2 μM latrunculin, measured after 30 minutes, 2.0 kPa before addition) | cell resistance to deformation compared to pre-exposure levels (HTM cells [2]; at 30 minutes of Lat-B exposure (0.2 μM)) | HTM Cell Modulus on Substrates, Glass (HTM cells [2]; 90 min recovery after 30 min 0.2 μM Lat-B and removal) | HTM Cell Modulus on Substrates, Glass (HTM cells [2]; 90 min recovery after 30 min 0.2 μM Lat-B and removal, listed as Lat-B) | HTM Cell Modulus on Substrates, Glass (HTM cells [2]; 270 min recovery after 30 min 0.2 μM Lat-B and removal) | HTM Cell Modulus on Substrates, Glass (HTM cells [2]; 270 min recovery after 30 min 0.2 μM Lat-B and removal, listed as Lat-B) | HTM Cell Modulus on Substrates, Homeomimetic (HTM cells [2]; 90 min recovery after Lat-B) | HTM Cell Modulus on Substrates, Homeomimetic (HTM cells [2]; 270 min recovery after Lat-B) | percentage difference in cell elastic modulus, PPA to HPA (HTM cells [2]; maximum, at 90 minutes of recovery from Lat-B) | HTM Cell Modulus on Substrates, Pathomimetic (HTM cells [2]; 90 min recovery after Lat-B) | HTM Cell Modulus on Substrates, Pathomimetic (HTM cells [2]; 270 min recovery after Lat-B) | increase in myocilin protein expression (myocilin) |
| --- | --- | --- | --- | --- | --- | --- | --- | --- | --- | --- | --- | --- | --- | --- | --- | --- |
| C/C1=C/C(=O)O[C@@H]2C[C@@H](CC[C@H](C)/C=C\CC1)O[C@@](O)([C@@H]1CSC(=O)N1)C2 [Latrunculin B] | rounding of the cells | starting to round up | completely rounded | 60-90 minutes | 0.07 kPa | substantially decreased | 11.0 ± 2.3 kPa | 11.0±2.3 kPa | 2.3 ± 0.2 kPa | 2.3±0.2 kPa | 2.3 ± 0.2 kPa | 1.7 ± 0.5 kPa | approximately 54% | 4.0 ± 1.8 kPa | 2.0 ± 0.4 kPa | – |
| C[C@@H]1C[C@H]2[C@@H]3CCC4=CC(=O)C=C[C@]4(C)[C@@]3(F)[C@@H](O)C[C@]2(C)[C@@]1(O)C(=O)CO [dexamethasone] | – | – | – | – | – | – | – | – | – | – | – | – | – | – | – | 19 fold |
